Measurements as given in US20240246964A1 (Arbutus Biopharma Corporation, priority 2021, published 2024).
Where two headings read alike, the source gives them in different places.

Tests used:
[1] = biological target: human PD-L1 (Homo sapiens (Human), UniProt Q9NZQ7); assay: T cell activation luciferase reporter cell culture system (T Cell Activation Assay); format: cell-based
[2] = biological target: PD-L1 His protein / PD-1 Fc protein (Homo sapiens (Human), UniProt Q9NZQ7); assay: HTRF Assay (PD-1/PD-L1 interaction); format: binding
Sequence of PD-L1 His protein / PD-1 Fc protein (Q9NZQ7 19-238): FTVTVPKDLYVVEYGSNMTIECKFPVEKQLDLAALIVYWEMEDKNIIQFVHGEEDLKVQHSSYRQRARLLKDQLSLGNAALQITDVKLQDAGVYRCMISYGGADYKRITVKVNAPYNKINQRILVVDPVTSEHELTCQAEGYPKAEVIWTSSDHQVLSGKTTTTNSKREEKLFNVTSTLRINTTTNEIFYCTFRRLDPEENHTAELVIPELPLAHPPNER

[3] = luciferase reporter assay, PD-L1 aAPC/CHO-K1 cells with PD-1 effector Jurkat T cells

Sequence of human PD-L1 (Q9NZQ7 19-290): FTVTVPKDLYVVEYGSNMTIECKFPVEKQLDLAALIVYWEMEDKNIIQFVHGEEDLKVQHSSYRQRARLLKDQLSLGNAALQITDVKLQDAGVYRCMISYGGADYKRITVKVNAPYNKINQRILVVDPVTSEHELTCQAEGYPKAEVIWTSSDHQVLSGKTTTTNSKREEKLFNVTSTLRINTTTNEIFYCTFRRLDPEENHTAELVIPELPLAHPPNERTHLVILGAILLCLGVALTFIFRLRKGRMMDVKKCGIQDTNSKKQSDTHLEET

Compound	EC50 [1, 3]	IC50 ([2]; PD-L1 His 6 nM, PD-1 Fc 6 nM)	EC50 [1]	IC50 [2]
COc1cc(-c2nccc(-c3cccc(NC(=O)c4ccc(CNC[C@H](C)O)cn4)c3Cl)c2Cl)ccc1CNC[C@H](C)O [Example 678, N-(2-Chloro-3-(3-chloro-2-(4-((((S)-2-hydroxypropyl)amino)methyl)-3-methoxyphenyl)pyridin-4-yl)phenyl)-5-((((S)-2-hydroxypropyl)amino)methyl)picolinamide]	37 nM	0.02 nM		
COc1nc(-c2cccc(-c3ccnc(-c4ccc5c(CNC6CCN(C(C)=O)CC6)nn(C)c5c4)c3Cl)c2Cl)ccc1CNC1CCN(C(C)=O)CC1 [Example 263, 1-(4-(((6-(3-(2-(3-(((1-Acetylpiperidin-4-yl)amino)methyl)-1-methyl-1H-indazol-6-yl)-3-chloropyridin-4-yl)-2-chlorophenyl)-2-methoxypyridin-3-yl)methyl)amino)piperidin-1-yl)ethan-1-one]	≥ 10000 nM	1.71 nM		
COc1nc(-c2cccc(-c3nccc(-c4ccc(CN5CC[C@@H](O)C5)c(OC)n4)c3Cl)c2Cl)ccc1CN1CC[C@@H](O)C1 [Example 772, (R)-1-((3′-Chloro-2′-(2-chloro-3-(5-(((R)-3-hydroxypyrrolidin-1-yl)methyl)-6-methoxypyridin-2-yl)phenyl)-6-methoxy-[2,4′-bipyridin]-5-yl)methyl)pyrrolidin-3-ol]	11.6 nM	0.85 nM		
COc1cc(-c2nccc(-c3cccc(-c4ccc(CNC5CCOCC5)c(OC)n4)c3C)c2C)ccc1CNC1CCOCC1 [Example 425, N-(2-Methoxy-4-(4-(3-(6-methoxy-5-(((tetrahydro-2H-pyran-4-yl)amino)methyl)pyridin-2-yl)-2-methylphenyl)-3-methylpyridin-2-yl)benzyl)tetrahydro-2H-pyran-4-amine]	841 nM	7.08 nM		
COc1nc(-c2cccc(-c3ccnc(-c4cc(OC)c5nc(CN6CC7(COC7)C6)nn5c4)c3Cl)c2Cl)ccc1CNC1CCN(C(C)=O)CC1 [Example 698, 1-(4-(((6-(3-(2-(2-((2-Oxa-6-azaspiro[3.3]heptan-6-yl)methyl)-8-methoxy-[1,2,4]triazolo[1,5-a]pyridin-6-yl)-3-chloropyridin-4-yl)-2-chlorophenyl)-2-methoxypyridin-3-yl)methyl)amino)piperidin-1-yl)ethan-1-one]	261 nM	0.14 nM		
COc1cc(-c2cccc(-c3ccnc(-c4cnc(CNC5CCN(C(C)=O)CC5)c(OC)c4)c3Cl)c2Cl)cnc1CNC1CCN(C(C)=O)CC1 [Compound 567, 1-(4-(((5-(3-(6′-(((1-acetylpiperidin-4-yl)amino)methyl)-3-chloro-5′-methoxy-[2,3′-bipyridin]-4-yl)-2-chlorophenyl)-3-methoxypyridin-2-yl)methyl)amino)piperidin-1-yl)ethan-1-one]	≥ 10000 nM	17.7 nM		
COc1cc(-c2nccc(-c3cccc(-c4ccc5c(CN(C)C6CCN(C(C)=O)CC6)cn(C)c5n4)c3Cl)c2Cl)ccc1CN1CC2(CNC(=O)C2)C1 [Compound 603, 2-(4-(4-(3-(3-(((1-Acetylpiperidin-4-yl)(methyl)amino)methyl)-1-methyl-1H-pyrrolo[2,3-b]pyridin-6-yl)-2-chlorophenyl)-3-chloropyridin-2-yl)-2-methoxybenzyl)-2,6-diazaspiro[3.4]octan-7-one]	49.7 nM	0.52 nM		
COc1cc(-c2nccc(-c3cccc(NC(=O)c4ccc(CNC[C@@H]5CCC(=O)N5)cn4)c3C)c2Cl)ccc1CNCCCF [Example 749, (S)—N-(3-(3-Chloro-2-(4-(((3-fluoropropyl)amino)methyl)-3-methoxyphenyl)pyridin-4-yl)-2-methylphenyl)-5-((((5-oxopyrrolidin-2-yl)methyl)amino)methyl)picolinamide]	461 nM	0.33 nM		
COc1cc(-c2nccc(-c3cccc(-c4ccc(CNC5CCN(C(C)=O)CC5)c(OC)n4)c3Cl)c2Cl)ccc1CN(C)C1CCN(C(C)=O)CC1 [Example 315, 1-(4-(((6-(3-(2-(4-(((1-acetylpiperidin-4-yl)(methyl)amino)methyl)-3-methoxyphenyl)-3-chloropyridin-4-yl)-2-chlorophenyl)-2-methoxypyridin-3-yl)methyl)amino)piperidin-1-yl)ethan-1-one]	28.9 nM	1.54 nM		
COc1nc(-c2cccc(-c3ccnc(-c4ccc5c(CN6CC7(CNC(=O)C7)C6)nn(C)c5c4)c3Cl)c2Cl)ccc1CNC[C@@H]1CCC(=O)N1 [Example 288, (S)-2-((6-(3-Chloro-4-(2-chloro-3-(6-methoxy-5-((((5-oxopyrrolidin-2-yl)methyl)amino)methyl)pyridin-2-yl)phenyl)pyridin-2-yl)-1-methyl-1H-indazol-3-yl)methyl)-2,6-diazaspiro[3.4]octan-7-one]	52.7 nM	2.33 nM		
COCC(=O)N1CCC(NCc2ccc(-c3nccc(-c4cccc(-c5ccc(CNC6CCN(C(=O)COC)CC6)c(OC)n5)c4C(F)(F)F)c3Cl)cc2OC)CC1 [Example 602, 1-(4-(((6-(3-(3-Chloro-2-(3-methoxy-4-(((1-(2-methoxyacetyl)piperidin-4-yl)amino)methyl)phenyl)pyridin-4-yl)-2-(trifluoromethyl)phenyl)-2-methoxypyridin-3-yl)methyl)amino)piperidin-1-yl)-2-methoxyethan-1-one]	≥ 10000 nM	41.3 nM		
1-(6-((6-(2-Chloro-3-(3-chloro-2-(3-methoxy-4-((6-(2-methoxyacetyl)-2,6-diazaspiro[3.3]heptan-2-yl)methyl)phenyl)pyridin-4-yl)phenyl)-2-methoxypyridin-3-yl)methyl)-2,6-diazaspiro[3.3]heptan-2-yl)-2-methoxyethan-1-one [Example 594]			33.7 nM	0.17 nM
COc1nc(-c2cccc(-c3ccnc(-c4cc(OC)c5nc(CN[C@H]6CC[C@H](O)CC6)nn5c4)c3Cl)c2Cl)ccc1CNC(C)C [Compound 758, (1r,4r)-4-(((6-(3-Chloro-4-(2-chloro-3-(5-((isopropylamino)methyl)-6-methoxypyridin-2-yl)phenyl)pyridin-2-yl)-8-methoxy-[1,2,4]triazolo[1,5-a]pyridin-2-yl)methyl)amino)cyclohexanol]	354 nM	0.24 nM		
COc1nc(-c2cccc(-c3ccnc(-c4cnc5c(CNC6CCN(C(C)=O)CC6)cn(C)c5c4)c3Cl)c2Cl)ccc1CNC[C@@H]1CCC(=O)N1 [Compound 21, (S)-5-((((6-(3-(2-(3-(((1-acetylpiperidin-4-yl)amino)methyl)-1-methyl-1H-pyrrolo[3,2-b]pyridin-6-yl)-3-chloropyridin-4-yl)-2-chlorophenyl)-2-methoxypyridin-3-yl)methyl)amino)methyl)pyrrolidin-2-one]	75.8 nM	0.1 nM		
COc1nc(-c2ccnc(-c3cccc4c3CC[C@@H]4Nc3nc(OC)c(CNC[C@@H]4CCC(=O)N4)cc3C(F)(F)F)c2Cl)ccc1CNC[C@@H]1CCC(=O)N1 [Compound 223, (S)-5-((((3′-chloro-6-methoxy-2′-((S)-1-((6-methoxy-5-(((((S)-5-oxopyrrolidin-2-yl)methyl)amino)methyl)-3-(trifluoromethyl)pyridin-2-yl)amino)-2,3-dihydro-1H-inden-4-yl)-[2,4′-bipyridin]-5-yl)methyl)amino)methyl)pyrrolidin-2-one]	16.7 nM	7.24 nM		
COc1cc(-c2nccc(-c3cccc(NC(=O)c4ccc(CNCCO)cn4)c3Cl)c2Cl)ccc1CNC1CCOCC1 [Example 768, N-(2-Chloro-3-(3-chloro-2-(3-methoxy-4-(((tetrahydro-2H-pyran-4-yl)amino)methyl)phenyl)pyridin-4-yl)phenyl)-5-(((2-hydroxyethyl)amino)methyl)picolinamide]	16.7 nM	0.1 nM		
COc1cc(-c2nccc(-c3cccc(-c4cc5c(c(OC)c4)CN(C[C@@H]4CCC(=O)N4)CC5)c3Cl)c2Cl)ccc1CNC[C@@H]1CCC(=O)N1 [Compound 18, (S)-5-((6-(2-chloro-3-(3-chloro-2-(3-methoxy-4-(((((S)-5-oxopyrrolidin-2-yl)methyl)amino)methyl)phenyl)pyridin-4-yl)phenyl)-8-methoxy-3,4-dihydroisoquinolin-2(1H)-yl)methyl)pyrrolidin-2-one]	75.6 nM	39.8 nM		
COCCNCc1cn(C)c2nc(-c3cccc(-c4ccnc(-c5ccc(CNC[C@@H]6CCC(=O)N6)c(OC)c5)c4Cl)c3Cl)ccc12 [Compound 100, (S)-5-(((4-(3-chloro-4-(2-chloro-3-(3-(((2-methoxyethyl)amino)methyl)-1-methyl-1H-pyrrolo[2,3-b]pyridin-6-yl)phenyl)pyridin-2-yl)-2-methoxybenzyl)amino)methyl)pyrrolidin-2-one]	59 nM	0.9 nM		
COc1cc(-c2nccc(-c3cccc(-c4ccc(CN(C)C[C@H]5CNC(=O)C5)c(OC)n4)c3Cl)c2Cl)ccc1CN(C)C[C@H]1CNC(=O)C1 [Example 473, (R)-4-((((6-(2-Chloro-3-(3-chloro-2-(3-methoxy-4-((methyl(((R)-5-oxopyrrolidin-3-yl)methyl)amino)methyl)phenyl)pyridin-4-yl)phenyl)-2-methoxypyridin-3-yl)methyl)(methyl)amino)methyl)pyrrolidin-2-one]	≥ 10000 nM	16.9 nM		
COc1nc(-c2cccc(-c3nccc(-c4ccc(CNC5CCOCC5)c(OC)n4)c3Cl)c2Cl)ccc1CNC1CCOCC1 [Compound 574, N-((3′-Chloro-2′-(2-chloro-3-(6-methoxy-5-(((tetrahydro-2H-pyran-4-yl)amino)methyl)pyridin-2-yl)phenyl)-6-methoxy-[2,4′-bipyridin]-5-yl)methyl)tetrahydro-2H-pyran-4-amine]	14 nM	0.04 nM		
COc1cc(-c2nccc(-c3cccc(-c4ccc(CNC[C@@H]5CCCO5)c(OC)n4)c3Cl)c2Cl)cc2c1CN(C[C@H](C)O)CC2 [Compound 216, (S)-1-(6-(3-chloro-4-(2-chloro-3-(6-methoxy-5-(((((S)-tetrahydrofuran-2-yl)methyl)amino)methyl)pyridin-2-yl)phenyl)pyridin-2-yl)-8-methoxy-3,4-dihydroisoquinolin-2(1H)-yl)propan-2-ol]	271 nM	4.51 nM		
